We go through 18 compounds from ChEMBL document CHEMBL1799932, “Antimalarial pyrido[1,2-a]benzimidazoles” (J Med Chem, 2011).

A word on the IC50: it is the concentration that gives 50% inhibition. In general, logD refers to lipophilicity at a set pH, counting ionised and neutral species. Low values mean lower lipophilicity, high ones higher lipophilicity.

The nature of data set [1]: Selectivity index, ratio IC50 for rat L6 cells to IC50 for multidrug-resistant Plasmodium falciparum K1 infected in human red blood cells. The class given is functional.
For data set [2], the system named is L6. Briefly: Cytotoxicity at rat L6 cells after 72 hrs by microplate alamar blue assay. The class given is cell-based. The conditions noted are these: Rattus norvegicus, L6, 72 h. A general note: Resazurin is reduced to fluorescent resorufin, in cell work by metabolically active cells.
A short description of data set [3]: Distribution coefficient, log D of the compound at pH 7.4. As to conditions: octanol/water. The class given is physicochemical.
The subject of data set [4] is Plasmodium falciparum. Briefly: microbe, parasite or virus in culture. The conditions noted are these: K1.
Description: Antimalarial activity against multidrug-resistant Plasmodium falciparum K1 infected in human red blood cells assessed as 3H-hypoxanthine incorporation after 48 hrs by liquid scintillation counting

Molecules are shown by their SMILES.

As to `CN(C)CCCNc1cc(C(F)(F)F)c(C#N)c2nc3ccccc3n12`, the “Ratio IC50” value in data set [1] was found to be 52.5. The concentration for half-maximal inhibition (IC50) amounted to 166000 nM in data set [2] and 3160 nM in data set [4]. Besides, in data set [3], the logD stood at 2.06.
As to `CCN(CC)CCNc1cc(-c2ccccc2)c(C#N)c2nc3ccccc3n12`, the “Ratio IC50” value in data set [1] is 108. In addition, the half-inhibitory concentration (IC50) in data set [2] came out at 120000 nM; in data set [4] it was 1110 nM. Besides, the logD in data set [3] stood at 1.89.
In the case of `CN(C)CCNc1cc(-c2cccc(C(F)(F)F)c2)c(C#N)c2nc3ccccc3n12`, the “Ratio IC50” value in data set [1] turned out to be 24.6. The IC50 was 7140 nM in data set [2] and 290 nM in data set [4]. Moreover, in data set [3], the logD turned out to be 2.45.
As for `CCN(CC)CCNc1cc(-c2ccc(Cl)cc2)c(C#N)c2nc3ccccc3n12`, the “Ratio IC50” value in data set [1] is on record as 683. The IC50 in data set [2] is 41000 nM; in data set [4], 60 nM. This compound also returned a logD in data set [3] of 2.54.
Regarding `CCN(CC)CCNc1cc(C(F)(F)F)c(C#N)c2nc3ccccc3n12`, the “Ratio IC50” value in data set [1] is recorded as 63.7. In addition, the IC50 was 121000 nM in data set [2] and 1900 nM in data set [4]. Further, the pH-dependent lipophilicity (logD) in data set [3] came out at 2.51.
On to `CCN(CC)CCNc1cc(-c2cccc(C(F)(F)F)c2)c(C#N)c2nc3ccccc3n12`, for which the “Ratio IC50” value in data set [1] was found to be 243. Also, the values for the half-inhibitory concentration (IC50) in data set [2] and in data set [4] were 102000 nM and 420 nM, respectively. For the same compound, in data set [3], the logD is 2.94.
As to `CCNCCN(CC)c1cc(-c2ccc(C(F)(F)F)cc2)c(C#N)c2nc3ccccc3n12`, in data set [1], the “Ratio IC50” value worked out at 22.9. Moreover, the half-inhibitory concentration (IC50) in data set [2] was 21500 nM; in data set [4], 940 nM. The same compound yielded a pH-dependent lipophilicity (logD) in data set [3] of 3.52.
Take `CN(C)CCCNc1cc(-c2ccc(C(F)(F)F)cc2)c(C#N)c2nc3ccccc3n12`: in data set [1], the “Ratio IC50” value is recorded as 455. For the same compound, the IC50 in data set [2] is greater than 200000 nM; in data set [4], 440 nM. Further, the log distribution coefficient (logD) in data set [3] was determined as 2.49.
For `CCN(CC)CCNc1cc(-c2cccc(F)c2)c(C#N)c2nc3ccccc3n12`, in that order: 225, 124000 nM, 550 nM and 1.99.
`CN(C)CCNc1cc(-c2ccc(F)cc2)c(C#N)c2nc3ccccc3n12`: the “Ratio IC50” value in data set [1] came out at 70. Also, the half-maximal inhibitory concentration (IC50) in data set [2] was 19600 nM; in data set [4] it was 280 nM. For the same compound, the logD in data set [3] was found to be 1.41.
As to `N#Cc1c(-c2cccc(C(F)(F)F)c2)cc(NCCCN)n2c1nc1ccccc12`, in data set [1], the “Ratio IC50” value is reported as 6.9. Besides, the half-maximal inhibitory concentration (IC50) in data set [2] was 4330 nM; in data set [4], 630 nM. The compound also showed a logD in data set [3] of 1.46.
`CCN(CC)CCCNc1cc(-c2ccc(Cl)cc2)c(C#N)c2nc3ccccc3n12`: the “Ratio IC50” value in data set [1] came out at 287. Further, the results for the IC50 in data set [2] and in data set [4] were 48800 nM and 170 nM, respectively. The compound also came in with a logD in data set [3] of 2.57.
As to `N#Cc1c(-c2ccc(C(F)(F)F)cc2)cc(NCCCN)n2c1nc1ccccc12`, in data set [1], the “Ratio IC50” value is reported as 6.8. Besides, the figures for the concentration for half-maximal inhibition (IC50) in data set [2] and in data set [4] were 6260 nM and 920 nM, respectively. This compound also gave a logD in data set [3] of 1.46.
For the compound `CN(C)CCCNc1cc(-c2ccc(F)cc2)c(C#N)c2nc3ccccc3n12`, in data set [1], the “Ratio IC50” value is 43. Besides, the IC50 in data set [2] was 11600 nM; in data set [4] it was 270 nM. The log distribution coefficient (logD) in data set [3] was found to be 1.45.
On to `CCN(CC)CCCNc1cc(-c2ccccc2)c(C#N)c2nc3ccccc3n12`, for which, in data set [1], the “Ratio IC50” value was greater than 150. The half-maximal inhibitory concentration (IC50) in data set [2] was greater than 230000 nM; in data set [4], 1530 nM. In addition, in data set [3], the logD turned out to be 2.
Turning to `CN(C)CCCNc1cc(-c2cccc(C(F)(F)F)c2)c(C#N)c2nc3ccccc3n12`, the “Ratio IC50” value in data set [1] was determined as 474. The IC50 in data set [2] turned out to be 180000 nM; in data set [4], 380 nM. Further, in data set [3], the logD worked out at 2.49.
With `N#Cc1c(-c2ccc(C(F)(F)F)cc2)cc(NCCN2CCCC2)n2c1nc1ccccc12`, the “Ratio IC50” value in data set [1] was 2751. Also, the IC50 was 146000 nM in data set [2] and 53 nM in data set [4]. Besides, the pH-dependent lipophilicity (logD) in data set [3] was 2.58.
Consider `COc1cc([C@@H]2c3cc4c(cc3[C@H](O)[C@H]3COC(=O)[C@H]23)OCO4)cc(OC)c1OC` [PODOFILOX], for which, in data set [2], it took 9 nM to reach half-maximal inhibition (IC50).
